Data taken from ChEMBL document CHEMBL4699464, “Talascortenes A-G, Highly Oxygenated Diterpenoid Acids from the Sea-Anemone-Derived Endozoic Fungus Talaromyces scorteus AS-242” (2020).
Converted amounts (≈) assume the structure as drawn.

Key:
Type in all cases: functional
Escherichia coli = test: Antimicrobial activity against Escherichia coli EMBLC-1 by serial dilution technique
Edwardsiella tarda = test: Antimicrobial activity against Edwardsiella tarda QDIO-9 by serial dilution technique
Pseudomonas aeruginosa = test: Antimicrobial activity against Pseudomonas aeruginosa QDIO-4 by serial dilution technique
Vibrio harveyi = test: Antimicrobial activity against Vibrio harveyi QDIO-7 by serial dilution technique
Aeromonas hydrophila = test: Antimicrobial activity against Aeromonas hydrophila QDIO-1 by serial dilution technique
Micrococcus luteus = test: Antimicrobial activity against Micrococcus luteus QDIO-3 by serial dilution technique
Vibrio parahaemolyticus = test: Antimicrobial activity against Vibrio parahaemolyticus QDIO-8 by serial dilution technique
Ceratobasidium cereale = test: Antimicrobial activity against Rhizoctonia cerealis QDAU-20 by serial dilution technique
Gaeumannomyces graminis = test: Antimicrobial activity against Gaeumannomyces graminis QDAU-21 by serial dilution technique
Fusarium oxysporum = test: Antimicrobial activity against Fusarium oxysporum QDAU-8 by serial dilution technique
[1] = test system: Colletotrichum gloeosporioides; test: Antimicrobial activity against Colletotrichum gloeosporioides QDAU-2 by serial dilution technique

SMILES | MIC (Escherichia coli) [µg/mL] | MIC (Edwardsiella tarda) [µg/mL] | MIC (Pseudomonas aeruginosa) [µg/mL] | MIC (Vibrio harveyi) [µg/mL] | MIC (Aeromonas hydrophila) [µg/mL] | MIC (Micrococcus luteus) [µg/mL] | MIC (Ceratobasidium cereale) [µg/mL] | MIC (Gaeumannomyces graminis) [µg/mL] | MIC (Fusarium oxysporum) [µg/mL] | MIC [1] [µg/mL] | MIC (Vibrio parahaemolyticus) [µg/mL]
C=C[C@]1(C)CCC2=C(CC[C@@]3(O)[C@@](C)(C(=O)O)[C@H](O)CC[C@]23C)[C@H]1O | 8 (≈ 22.8 µM) | > 32 | > 32 | > 32 | > 32 | > 32 | > 32 | > 32 | > 32 | > 32 | > 32
C[C@]1(O)C[C@]23CC[C@H]1C[C@@H]2[C@@]1(C)CCC[C@](C)(C(=O)O)[C@]1(O)CC3 | 32 (≈ 95.1 µM) | 16 (≈ 47.6 µM) | 16 (≈ 47.6 µM) | > 32 | > 32 | 2 (≈ 5.94 µM) | 8 (≈ 23.8 µM) | 4 (≈ 11.9 µM) | 16 (≈ 47.6 µM) | > 32 | > 32
C=C[C@]1(C)CC[C@@]2(O)[C@](O)(CC[C@]3(O)[C@]2(C)CCC[C@]3(C)C(=O)O)C1 | 8 (≈ 22.7 µM) | > 32 | > 32 | > 32 | > 32 | > 32 | > 32 | > 32 | > 32 | > 32 | > 32
C=C[C@]1(C)CCC2=C(CC[C@@]3(O)[C@@](C)(C(=O)O)CCC[C@]23C)[C@H]1OC | 1 (≈ 2.87 µM) | > 32 | > 32 | > 32 | > 32 | 8 (≈ 23 µM) | > 32 | > 32 | > 32 | 2 (≈ 5.74 µM) | > 32
C=C1CC[C@]2(O)[C@](C)(CCC[C@]2(C)C(=O)O)[C@]1(O)CC/C(C)=C/CO | > 32 | > 32 | > 32 | > 32 | > 32 | > 32 | > 32 | > 32 | > 32 | > 32 | 8 (≈ 22.7 µM)
C=C[C@]1(C)CCC2=C(CC[C@@]3(O)[C@@](C)(C(=O)O)[C@H](O)CC[C@]23C)[C@@H]1OC | > 32 | > 32 | 32 (≈ 87.8 µM) | > 32 | > 32 | > 32 | > 32 | > 32 | > 32 | > 32 | 8 (≈ 21.9 µM)
O=C(N[C@H](CO)[C@H](O)c1ccc([N+](=O)[O-])cc1)C(Cl)Cl [CHLORAMPHENICOL] | 1 (≈ 3.09 µM) | 0.5 (≈ 1.55 µM) | 2 (≈ 6.19 µM) | 2 (≈ 6.19 µM) | 4 (≈ 12.4 µM) | 1 (≈ 3.09 µM) |  |  |  |  | 0.5 (≈ 1.55 µM)

More lines, main results first:

MIC (Escherichia coli) [µg/mL] | MIC (Edwardsiella tarda) [µg/mL] | MIC (Pseudomonas aeruginosa) [µg/mL] | MIC (Vibrio harveyi) [µg/mL] | MIC (Aeromonas hydrophila) [µg/mL] | MIC (Micrococcus luteus) [µg/mL] | MIC (Ceratobasidium cereale) [µg/mL] | MIC (Gaeumannomyces graminis) [µg/mL] | MIC (Fusarium oxysporum) [µg/mL] | MIC [1] [µg/mL] | SMILES | MIC (Vibrio parahaemolyticus) [µg/mL]
16 (≈ 47.8 µM) | > 32 | > 32 | 8 (≈ 23.9 µM) | 16 (≈ 47.8 µM) | > 32 | > 32 | > 32 | > 32 | > 32 | C=C[C@]1(C)CCC2=C(CC[C@]3(O)[C@@](C)(C(=O)O)CCC[C@]23C)[C@H]1O | > 32
> 32 | > 32 | > 32 | > 32 | > 32 | 4 (≈ 10.3 µM) | > 32 | > 32 | > 32 | > 32 | C=C[C@H]1[C@@H]2CC[C@@]3(O)[C@@](C)(C(=O)O)[C@H](O)CC[C@]3(C)[C@H]2CC[C@@]1(O)CCl | 32 (≈ 82.7 µM)
 |  |  |  |  |  | 1 (≈ 1.08 µM) | 1 (≈ 1.08 µM) | 0.5 (≈ 0.541 µM) | 2 (≈ 2.16 µM) | C[C@@H]1[C@H](O)[C@@H](C)/C=C/C=C/C=C/C=C/C=C/C=C/C=C/[C@H](O[C@@H]2O[C@H](C)[C@@H](O)[C@H](N)[C@@H]2O)C[C@@H]2O[C@](O)(C[C@@H](O)C[C@@H](O)[C@H](O)CC[C@@H](O)C[C@@H](O)CC(=O)O[C@H]1C)C[C@H](O)[C@H]2C(=O)O [AMPHOTERICIN B] | 
